Experiments:
Assay in all cases: relative viability (nuclei count vs DMSO), 5 days (fraction); higher = more cells survive
[1] = compound: CN1CCN(CCOc2cc(OC3CCOCC3)c3c(Nc4c(Cl)ccc5c4OCO5)ncnc3c2)CC1 [Saracatinib]
Method in brief: (§1)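 Lung cancer cell lines in 1536-well plates were kept overnight at 37 °C, then pinned with five library-drug doses (not always all listed) spaced by √10 on vehicle-anchored plates. After 5 days without medium change, cells were fixed, permeabilised and Hoechst-stained in one step, imaged at 4×, and nuclei were counted with MetaXpress. Viability is treated-well nuclei divided by vehicle-well nuclei, taken as the median over plates. Plates passed only with control CV below 25% and at least one doubling.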

[2] = compound: CCNC(=O)c1noc(-c2cc(C(C)C)c(O)cc2O)c1-c1ccc(CN2CCOCC2)cc1 [Luminespib]
Method in brief: as §1

[3] = compound: CC1=CSC(=NC2CCCCC2)N1/N=C/C3=C(C(=C(C=C3)O)O)O [MIM1]
Method in brief: as §1

[4] = compound: Cc1cn(-c2cc(NC(=O)c3ccc(C)c(Nc4nccc(-c5cccnc5)n4)c3)cc(C(F)(F)F)c2)cn1 [Nilotinib]
Method in brief: as §1

[5] = compound: Nc1cccc2c1CN(C1CCC(=O)NC1=O)C2=O [Lenalidomide]
Method in brief: as §1

| Cell Line | relative viability ([1]; 0.02 µM) | relative viability ([1]; 0.2 µM) | relative viability ([1]; 0.6325 µM) | relative viability ([1]; 2 µM) | relative viability ([2]; 0.002 µM) | relative viability ([2]; 0.006325 µM) | relative viability ([2]; 0.01 µM, anchor plate) | relative viability ([2]; 0.02 µM) | relative viability ([2]; 0.06325 µM) | relative viability ([2]; 0.2 µM) | relative viability ([3]; 0.2 µM) | relative viability ([3]; 0.6325 µM) | relative viability ([3]; 2 µM) | relative viability ([3]; 6.325 µM) | relative viability ([3]; 20 µM) | relative viability ([4]; 0.001 µM) | relative viability ([4]; 0.003162 µM) | relative viability ([4]; 0.01 µM) | relative viability ([4]; 0.03162 µM) | relative viability ([4]; 0.1 µM) | relative viability ([5]; 0.253 µM) | relative viability ([5]; 0.8 µM) | relative viability ([5]; 2.53 µM) | relative viability ([5]; 8 µM) |
| --- | --- | --- | --- | --- | --- | --- | --- | --- | --- | --- | --- | --- | --- | --- | --- | --- | --- | --- | --- | --- | --- | --- | --- | --- |
| NCI-H2342 | 1.07 | 0.947 | 1.14 | 0.945 | 0.974 | 0.955 | 0.76 | 0.619 | 0.774 | 0.592 | 0.944 | 1 | 1.01 | 0.803 | 1.03 | 0.868 | 0.928 | 1.02 | 0.831 | 1.02 | 1.01 | 0.952 | 1.04 | 0.733 |
| NCI-H2347 | 0.983 | 0.903 | 1.09 | 1.06 | 1.02 | 0.721 | 0.421 | 0.911 | 0.722 | 0.318 | 1.1 | 0.972 | 1.09 | 0.757 | 0.478 | 0.97 | 1.14 | 1.13 | 0.841 | 0.793 | 1.03 | 1.13 | 1.17 | 0.9 |
| NCI-H2405 | 0.985 | 0.861 | 0.775 | 0.52 | 1.07 | 0.837 | 0.686 | 0.831 | 0.274 | 0.212 | 1.02 | 1.08 | 1.05 | 0.742 | 0.573 | 0.994 | 0.975 | 0.966 | 0.821 | 0.551 | 0.969 | 0.909 | 1.01 | 0.831 |
| NCI-H3122 | 0.969 | 0.717 | 0.845 | 0.803 | 1.05 | 0.958 | 0.0888 | 0.627 | 0.507 | 0.117 | 0.979 | 1.04 | 1.01 | 0.551 | 0.257 | 1.03 | 1.21 | 1.23 | 0.971 | 0.956 | 0.999 | 1.04 | 1.01 | 1.06 |
| PC-3 [JPC-3] | 1.02 | 0.945 | 0.766 | 0.541 | 1.01 | 0.915 | 0.669 | 0.982 | 0.961 | 0.281 | 1.05 | 1.04 | 0.988 | 0.874 | 0.439 | 1.03 | 1.07 | 1.11 | 1 | 0.656 | 1.03 | 0.899 | 1.13 | 1.08 |
| PC-14 | 1.01 | 0.675 | 0.453 | 0.234 | 1.02 | 0.933 | 0.164 | 0.572 | 0.0917 | 0.0993 | 0.959 | 1.01 | 0.836 | 0.807 | 0.325 | 0.944 | 1.14 | 1.26 | 0.879 | 0.643 | 1.01 | 1.02 | 1.12 | 1.1 |
| RERF-LC-KJ | 1.1 | 0.979 | 1.02 | 0.981 | 0.979 | 0.994 | 1.24 | 0.844 | 0.314 | 0.234 | 0.932 | 0.977 | 0.823 | 0.574 | 0.271 | 0.932 | 1.1 | 1.12 | 0.868 | 0.81 | 1.06 | 0.947 | 1.08 | 0.943 |
| SK-LU-1 | 1.03 | 0.802 | 0.707 | 0.53 | 1.09 | 0.777 | 0.202 | 0.644 | 0.186 | 0.192 | 1.05 | 1.08 | 1.12 | 0.934 | 0.617 | 0.932 | 0.927 | 1.24 | 0.718 | 0.894 | 0.963 | 1.03 | 1.23 | 0.903 |
| SK-MES-1 | 1 | 0.894 | 0.817 | 0.579 | 0.986 | 0.931 | 0.831 | 0.903 | 0.171 | 0.145 | 1.02 | 0.986 | 0.996 | 0.766 | 0.507 | 0.994 | 1.13 | 1.26 | 0.924 | 0.877 | 0.988 | 0.995 | 1.06 | 0.936 |
| SW 900 | 0.97 | 0.658 | 0.878 | 0.694 | 0.945 | 0.732 | 0.18 | 0.474 | 0.138 | 0.132 | 0.915 | 0.947 | 0.782 | 0.502 | 0.158 | 0.748 | 0.939 | 1.07 | 0.639 | 0.611 | 0.809 | – | 1.03 | 0.598 |
| SW 1573 | 0.931 | 0.785 | 0.877 | 0.729 | 1.04 | 0.976 | 0.217 | 0.595 | 0.108 | 0.107 | 1.1 | 0.966 | 0.976 | 0.763 | 0.488 | 0.906 | 1.2 | 1.12 | 0.737 | 0.66 | 0.914 | 1.01 | 1.08 | 0.925 |
| UMC-11 | 0.971 | 0.729 | 1.02 | 0.807 | 0.962 | 0.976 | 1.03 | 0.471 | 0.587 | 0.221 | 0.962 | 0.725 | 1.08 | 0.747 | 0.284 | 0.934 | 1.09 | 1.15 | 0.686 | 0.863 | 0.999 | 0.846 | 1.09 | 0.778 |

— the supplement of paper PMC10307832
